Laboratory results taken from ChEMBL document CHEMBL4507267 (2021).

Legend:
[1] = system: Receptor-type tyrosine-protein kinase FLT3 (Homo sapiens), P36888 [D835H]; conditions: Compound concentration 1000.0 nM
[2] = target: Fibroblast growth factor receptor 4 (Homo sapiens) (UniProt P22455); conditions: Compound concentration 1000.0 nM
[3] = target: Focal adhesion kinase 1 (Homo sapiens) (UniProt Q05397); conditions: Compound concentration 1000.0 nM
[4] = system: Receptor-type tyrosine-protein kinase FLT3 (Homo sapiens), P36888 [UNDEFINED MUTATION]; conditions: Compound concentration 1000.0 nM
[5] = target: Serine/threonine-protein kinase DCLK1 (Homo sapiens) (UniProt O15075); conditions: Compound concentration 1000.0 nM
[6] = target: GABA-A receptor; anion channel (Rattus norvegicus) (UniProt O09028+P15431+P18506+P18508+P19969+P20236+P23574+P23576+P28471+P28473+P30191+P62813+P63079+P63138+Q91ZM7+Q9ES14); conditions: Compound concentration 10.0 uM
[7] = target: Platelet-derived growth factor receptor beta (Homo sapiens) (UniProt P09619); conditions: Compound concentration 1000.0 nM
[8] = target: Megakaryocyte-associated tyrosine-protein kinase (Homo sapiens) (UniProt P42679); conditions: Compound concentration 1000.0 nM
[9] = target: Phosphatidylinositol 4-kinase beta (Homo sapiens) (UniProt Q9UBF8); conditions: Compound concentration 1000.0 nM
[10] = target: Serine/threonine-protein kinase PAK 2 (Homo sapiens) (UniProt Q13177); conditions: Compound concentration 1000.0 nM
[11] = target: Serine/threonine-protein kinase 33 (Homo sapiens) (UniProt Q9BYT3); conditions: Compound concentration 1000.0 nM
[12] = target: Activin receptor type-1-like (Homo sapiens) (UniProt P37023); conditions: Compound concentration 1000.0 nM
[13] = target: Leucine-rich repeat serine/threonine-protein kinase 2 (Homo sapiens) (UniProt Q5S007); conditions: Compound concentration 1000.0 nM
[14] = target: Atypical kinase COQ8A, mitochondrial (Homo sapiens) (UniProt Q8NI60); conditions: Compound concentration 1000.0 nM
[15] = target: Serine/threonine-protein kinase MAK (Homo sapiens) (UniProt P20794); conditions: Compound concentration 1000.0 nM
[16] = target: Receptor-type tyrosine-protein kinase FLT3 (Homo sapiens) (UniProt P36888); conditions: Compound concentration 1000.0 nM
[17] = target: Dual specificity tyrosine-phosphorylation-regulated kinase 2 (Homo sapiens) (UniProt Q92630); conditions: Compound concentration 1000.0 nM
[18] = target: 5-hydroxytryptamine receptor 1D (Homo sapiens) (UniProt P28221); conditions: Compound concentration 10.0 uM
[19] = target: NUAK family SNF1-like kinase 1 (Homo sapiens) (UniProt O60285); conditions: Compound concentration 1000.0 nM
[20] = target: Homeodomain-interacting protein kinase 2 (Homo sapiens) (UniProt Q9H2X6); conditions: Compound concentration 1000.0 nM
[21] = target: Serine/threonine-protein kinase DCLK2 (Homo sapiens) (UniProt Q8N568); conditions: Compound concentration 1000.0 nM
[22] = target: Wee1-like protein kinase 2 (Homo sapiens) (UniProt P0C1S8); conditions: Compound concentration 1000.0 nM
[23] = system: Mast/stem cell growth factor receptor Kit (Homo sapiens), P10721 [D816H]; conditions: Compound concentration 1000.0 nM
[24] = target: Casein kinase I isoform gamma-1 (Homo sapiens) (UniProt Q9HCP0); conditions: Compound concentration 1000.0 nM
[25] = target: Rhodopsin kinase GRK7 (Homo sapiens) (UniProt Q8WTQ7); conditions: Compound concentration 1000.0 nM
[26] = target: Serine/threonine-protein kinase SIK3 (Homo sapiens) (UniProt Q9Y2K2); conditions: Compound concentration 1000.0 nM
[27] = target: Cyclin-dependent kinase-like 3 (Homo sapiens) (UniProt Q8IVW4); conditions: Compound concentration 1000.0 nM
[28] = target: Serine/threonine-protein kinase PAK 1 (Homo sapiens) (UniProt Q13153); conditions: Compound concentration 1000.0 nM
[29] = system: Tyrosine-protein kinase ABL1 (Homo sapiens), P00519 [H396P]; conditions: Compound concentration 1000.0 nM
[30] = target: Serine/threonine-protein kinase VRK2 (Homo sapiens) (UniProt Q86Y07); conditions: Compound concentration 1000.0 nM
[31] = target: Mitogen-activated protein kinase kinase kinase 6 (Homo sapiens) (UniProt O95382); conditions: Compound concentration 1000.0 nM
[32] = target: Serine/threonine-protein kinase 16 (Homo sapiens) (UniProt O75716); conditions: Compound concentration 1000.0 nM
[33] = target: Myosin light chain kinase (Homo sapiens) (UniProt Q32MK0); conditions: Compound concentration 1000.0 nM
[34] = target: ALK tyrosine kinase receptor (Homo sapiens) (UniProt Q9UM73); conditions: Compound concentration 1000.0 nM
[35] = target: Muscarinic acetylcholine receptor M2 (Homo sapiens) (UniProt P08172); conditions: Compound concentration 10.0 uM
[36] = target: Calcium/calmodulin-dependent protein kinase kinase 2 (Homo sapiens) (UniProt Q96RR4); conditions: Compound concentration 1000.0 nM
[37] = target: Tyrosine-protein kinase Srms (Homo sapiens) (UniProt Q9H3Y6); conditions: Compound concentration 1000.0 nM
[38] = target: Serine/threonine-protein kinase Nek9 (Homo sapiens) (UniProt Q8TD19); conditions: Compound concentration 1000.0 nM
[39] = target: Hormonally up-regulated neu tumor-associated kinase (Homo sapiens) (UniProt P57058); conditions: Compound concentration 1000.0 nM
[40] = target: 5-hydroxytryptamine receptor 5A (Homo sapiens) (UniProt P47898); conditions: Compound concentration 10.0 uM
[41] = target: Phosphatidylinositol 3-kinase C2 domain-containing subunit gamma (Homo sapiens) (UniProt O75747); conditions: Compound concentration 1000.0 nM
[42] = target: 5-hydroxytryptamine receptor 2B (Homo sapiens) (UniProt P41595); conditions: Compound concentration 10.0 uM
[43] = target: Ephrin type-A receptor 7 (Homo sapiens) (UniProt Q15375); conditions: Compound concentration 1000.0 nM
[44] = target: Ephrin type-A receptor 2 (Homo sapiens) (UniProt P29317); conditions: Compound concentration 1000.0 nM

Sequence of 5-hydroxytryptamine receptor 2B (Homo sapiens) (P41595 whole entry): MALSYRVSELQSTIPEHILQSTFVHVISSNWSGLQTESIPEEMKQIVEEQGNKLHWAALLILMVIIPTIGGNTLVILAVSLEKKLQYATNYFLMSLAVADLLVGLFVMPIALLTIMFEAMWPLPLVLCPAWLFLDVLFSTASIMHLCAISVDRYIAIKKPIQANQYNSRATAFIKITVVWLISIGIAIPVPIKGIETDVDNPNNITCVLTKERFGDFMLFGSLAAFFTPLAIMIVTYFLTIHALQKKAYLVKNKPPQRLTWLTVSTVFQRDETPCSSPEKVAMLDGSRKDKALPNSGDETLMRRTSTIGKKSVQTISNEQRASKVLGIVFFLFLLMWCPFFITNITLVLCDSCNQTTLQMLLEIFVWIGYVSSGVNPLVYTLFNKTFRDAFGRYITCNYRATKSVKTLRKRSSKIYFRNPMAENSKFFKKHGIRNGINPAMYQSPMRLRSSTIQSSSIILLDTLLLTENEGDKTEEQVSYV
Sequence of Leucine-rich repeat serine/threonine-protein kinase 2 (Homo sapiens) (Q5S007 whole entry): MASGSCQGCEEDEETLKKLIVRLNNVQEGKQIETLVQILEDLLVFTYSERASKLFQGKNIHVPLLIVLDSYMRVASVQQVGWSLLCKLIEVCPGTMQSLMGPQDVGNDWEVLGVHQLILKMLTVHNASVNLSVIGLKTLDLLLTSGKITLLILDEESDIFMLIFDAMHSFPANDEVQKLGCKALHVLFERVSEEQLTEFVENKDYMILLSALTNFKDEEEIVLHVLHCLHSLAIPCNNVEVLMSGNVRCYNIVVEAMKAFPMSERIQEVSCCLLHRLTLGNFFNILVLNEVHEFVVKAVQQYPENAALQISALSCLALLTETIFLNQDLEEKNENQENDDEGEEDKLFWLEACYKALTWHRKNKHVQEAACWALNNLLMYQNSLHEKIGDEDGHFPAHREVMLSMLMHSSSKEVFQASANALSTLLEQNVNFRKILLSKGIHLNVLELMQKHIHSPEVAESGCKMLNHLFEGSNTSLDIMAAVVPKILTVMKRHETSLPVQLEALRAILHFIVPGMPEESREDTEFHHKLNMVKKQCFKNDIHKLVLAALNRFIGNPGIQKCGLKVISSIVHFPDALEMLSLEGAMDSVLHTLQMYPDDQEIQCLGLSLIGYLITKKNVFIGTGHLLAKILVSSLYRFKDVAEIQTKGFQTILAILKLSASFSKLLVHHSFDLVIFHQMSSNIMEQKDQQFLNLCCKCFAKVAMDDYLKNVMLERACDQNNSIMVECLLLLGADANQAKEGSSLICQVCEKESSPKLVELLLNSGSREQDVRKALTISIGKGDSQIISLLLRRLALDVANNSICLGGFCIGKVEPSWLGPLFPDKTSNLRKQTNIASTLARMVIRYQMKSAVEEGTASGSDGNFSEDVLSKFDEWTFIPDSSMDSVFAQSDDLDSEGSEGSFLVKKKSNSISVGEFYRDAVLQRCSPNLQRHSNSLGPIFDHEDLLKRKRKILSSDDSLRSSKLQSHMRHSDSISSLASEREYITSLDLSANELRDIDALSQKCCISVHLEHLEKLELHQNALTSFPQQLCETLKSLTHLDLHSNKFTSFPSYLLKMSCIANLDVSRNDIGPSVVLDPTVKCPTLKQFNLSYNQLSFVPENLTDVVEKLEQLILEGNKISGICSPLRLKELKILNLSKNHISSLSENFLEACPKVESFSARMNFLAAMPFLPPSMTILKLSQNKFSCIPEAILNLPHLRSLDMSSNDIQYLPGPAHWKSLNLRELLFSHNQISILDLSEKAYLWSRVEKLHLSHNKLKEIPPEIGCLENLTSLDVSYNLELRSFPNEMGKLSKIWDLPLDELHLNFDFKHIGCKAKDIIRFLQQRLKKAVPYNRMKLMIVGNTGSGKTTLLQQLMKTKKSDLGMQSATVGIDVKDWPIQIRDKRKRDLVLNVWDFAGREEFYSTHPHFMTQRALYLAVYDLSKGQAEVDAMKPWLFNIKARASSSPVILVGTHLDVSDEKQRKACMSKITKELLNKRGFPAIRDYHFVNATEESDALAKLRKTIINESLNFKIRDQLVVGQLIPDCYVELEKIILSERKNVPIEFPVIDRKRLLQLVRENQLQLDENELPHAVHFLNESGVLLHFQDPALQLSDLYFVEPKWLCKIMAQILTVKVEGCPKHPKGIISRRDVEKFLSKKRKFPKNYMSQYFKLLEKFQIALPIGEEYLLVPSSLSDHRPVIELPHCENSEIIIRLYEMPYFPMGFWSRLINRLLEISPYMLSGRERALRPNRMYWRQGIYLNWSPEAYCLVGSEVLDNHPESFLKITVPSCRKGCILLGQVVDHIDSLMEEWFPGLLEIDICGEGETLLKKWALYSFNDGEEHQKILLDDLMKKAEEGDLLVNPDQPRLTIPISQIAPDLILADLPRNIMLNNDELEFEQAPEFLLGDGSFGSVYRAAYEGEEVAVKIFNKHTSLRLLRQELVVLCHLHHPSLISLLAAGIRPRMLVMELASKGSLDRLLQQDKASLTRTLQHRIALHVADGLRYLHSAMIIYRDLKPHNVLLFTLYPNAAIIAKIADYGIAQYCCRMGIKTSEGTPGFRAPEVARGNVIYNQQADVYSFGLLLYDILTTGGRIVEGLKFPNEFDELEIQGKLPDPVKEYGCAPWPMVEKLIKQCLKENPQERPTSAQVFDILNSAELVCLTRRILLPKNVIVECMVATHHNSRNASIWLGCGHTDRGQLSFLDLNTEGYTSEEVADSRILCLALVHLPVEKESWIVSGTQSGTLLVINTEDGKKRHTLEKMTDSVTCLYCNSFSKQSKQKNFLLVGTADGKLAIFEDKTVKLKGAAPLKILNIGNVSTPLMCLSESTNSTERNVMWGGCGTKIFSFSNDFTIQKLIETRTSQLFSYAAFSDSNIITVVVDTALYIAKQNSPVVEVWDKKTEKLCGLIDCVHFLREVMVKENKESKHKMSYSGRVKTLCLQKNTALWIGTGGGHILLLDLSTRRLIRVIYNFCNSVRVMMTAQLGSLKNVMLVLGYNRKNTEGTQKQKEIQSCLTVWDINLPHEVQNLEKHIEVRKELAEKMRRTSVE
Sequence of Focal adhesion kinase 1 (Homo sapiens) (Q05397 2-1052 limits assumed): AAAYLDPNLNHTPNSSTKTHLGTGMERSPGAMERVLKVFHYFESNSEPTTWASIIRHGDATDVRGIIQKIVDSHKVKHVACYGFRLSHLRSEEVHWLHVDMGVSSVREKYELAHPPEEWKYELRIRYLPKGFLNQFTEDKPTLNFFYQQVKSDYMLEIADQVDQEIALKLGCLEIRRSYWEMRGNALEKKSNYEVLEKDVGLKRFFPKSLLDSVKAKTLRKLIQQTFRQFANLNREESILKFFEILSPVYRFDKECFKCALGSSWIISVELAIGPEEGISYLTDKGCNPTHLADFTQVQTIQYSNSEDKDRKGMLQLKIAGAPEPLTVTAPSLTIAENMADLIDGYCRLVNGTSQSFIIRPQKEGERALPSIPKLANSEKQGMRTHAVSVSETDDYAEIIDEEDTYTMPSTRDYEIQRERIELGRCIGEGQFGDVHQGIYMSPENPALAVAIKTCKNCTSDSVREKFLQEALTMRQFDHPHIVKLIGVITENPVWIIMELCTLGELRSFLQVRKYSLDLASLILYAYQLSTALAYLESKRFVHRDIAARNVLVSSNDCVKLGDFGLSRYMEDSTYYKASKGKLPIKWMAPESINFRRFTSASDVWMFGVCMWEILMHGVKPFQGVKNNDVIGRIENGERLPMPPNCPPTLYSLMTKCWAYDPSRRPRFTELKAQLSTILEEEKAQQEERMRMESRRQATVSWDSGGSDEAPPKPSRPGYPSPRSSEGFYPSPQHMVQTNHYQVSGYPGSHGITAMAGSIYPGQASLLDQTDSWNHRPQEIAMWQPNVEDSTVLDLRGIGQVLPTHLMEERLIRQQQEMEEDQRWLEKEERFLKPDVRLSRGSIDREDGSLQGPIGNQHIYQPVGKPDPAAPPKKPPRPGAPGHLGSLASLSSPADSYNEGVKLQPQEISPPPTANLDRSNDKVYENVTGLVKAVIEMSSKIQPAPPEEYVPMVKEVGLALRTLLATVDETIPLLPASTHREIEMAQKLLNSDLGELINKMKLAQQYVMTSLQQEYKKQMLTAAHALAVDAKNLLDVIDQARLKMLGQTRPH
Sequence of Cyclin-dependent kinase-like 3 (Homo sapiens) (Q8IVW4 whole entry, looked up): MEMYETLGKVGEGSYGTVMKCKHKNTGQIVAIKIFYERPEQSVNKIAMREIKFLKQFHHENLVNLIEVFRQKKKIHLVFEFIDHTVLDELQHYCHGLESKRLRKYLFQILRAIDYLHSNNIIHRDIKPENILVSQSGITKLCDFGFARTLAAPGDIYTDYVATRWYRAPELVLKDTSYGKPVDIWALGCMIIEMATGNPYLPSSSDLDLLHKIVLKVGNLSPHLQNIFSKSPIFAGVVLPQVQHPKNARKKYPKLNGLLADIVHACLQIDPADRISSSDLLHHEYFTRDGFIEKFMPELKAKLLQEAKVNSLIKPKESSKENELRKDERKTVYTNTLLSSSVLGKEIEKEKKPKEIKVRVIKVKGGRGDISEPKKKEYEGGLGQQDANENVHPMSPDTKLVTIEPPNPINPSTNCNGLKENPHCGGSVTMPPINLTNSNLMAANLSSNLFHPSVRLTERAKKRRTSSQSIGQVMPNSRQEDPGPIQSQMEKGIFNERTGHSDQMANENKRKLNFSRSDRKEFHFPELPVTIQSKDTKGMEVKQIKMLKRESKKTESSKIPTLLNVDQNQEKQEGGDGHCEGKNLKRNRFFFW
Sequence of Serine/threonine-protein kinase 16 (Homo sapiens) (O75716 whole entry): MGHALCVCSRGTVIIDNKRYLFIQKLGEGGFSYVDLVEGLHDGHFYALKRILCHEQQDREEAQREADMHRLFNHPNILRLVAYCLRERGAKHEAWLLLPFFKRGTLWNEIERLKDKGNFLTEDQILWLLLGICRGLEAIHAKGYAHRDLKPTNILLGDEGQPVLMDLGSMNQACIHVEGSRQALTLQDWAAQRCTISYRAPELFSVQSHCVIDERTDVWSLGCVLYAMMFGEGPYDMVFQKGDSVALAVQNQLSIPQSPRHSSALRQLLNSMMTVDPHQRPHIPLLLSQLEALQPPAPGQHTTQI

Cc1c(NC(=O)c2cc(C(N)=O)nc3cc(F)ccc23)c(C(F)(F)F)nn1Cc1ccc(C#N)cc1 [BAY-876]
inactive: residual activity [1] 100% | residual activity [2] 100% | residual activity [3] 96% | residual activity [4] 80% | residual activity [5] 85% | inhibition [6] 2.64% | residual activity [7] 87% | residual activity [8] 66% | residual activity [9] 77% | residual activity [10] 88% | residual activity [11] 80% | residual activity [12] 100% | residual activity [13] 83% | residual activity [14] 82% | residual activity [15] 79% | residual activity [16] 99% | residual activity [17] 88% | inhibition [18] 6.11% | residual activity [19] 100% | residual activity [20] 83% | residual activity [21] 82% | residual activity [22] 100% | residual activity [23] 60% | residual activity [24] 100% | residual activity [25] 75% | residual activity [26] 81% | residual activity [27] 80% | residual activity [28] 100% | residual activity [29] 81% | residual activity [30] 72% | residual activity [31] 75% | residual activity [32] 100% | residual activity [33] 79% | residual activity [34] 87% | inhibition [35] 25.8% | residual activity [36] 92% | residual activity [37] 62% | residual activity [38] 95% | residual activity [39] 77% | inhibition [40] -2.35% | residual activity [41] 61% | inhibition [42] 11.1% | residual activity [43] 86% | residual activity [44] 81%

Cc1c(NC(=O)c2cc(C(N)=O)nc3cc(F)ccc23)c(C(F)(F)F)nn1Cc1ccc(C(C)(C)C)cc1 [BAY-588]
inactive: residual activity [1] 79% | residual activity [2] 100% | residual activity [3] 100% | residual activity [4] 95% | residual activity [5] 91% | inhibition [6] 9.54% | residual activity [7] 76% | residual activity [8] 66% | residual activity [9] 72% | residual activity [10] 85% | residual activity [11] 96% | residual activity [12] 94% | residual activity [13] 100% | residual activity [14] 85% | residual activity [15] 85% | residual activity [16] 100% | residual activity [17] 88% | inhibition [18] -4.9% | residual activity [19] 94% | residual activity [20] 100% | residual activity [21] 83% | residual activity [22] 96% | residual activity [23] 100% | residual activity [24] 100% | residual activity [25] 100% | residual activity [26] 91% | residual activity [27] 87% | residual activity [28] 98% | residual activity [29] 100% | residual activity [30] 95% | residual activity [31] 100% | residual activity [32] 83% | residual activity [33] 100% | residual activity [34] 96% | inhibition [35] 15.3% | residual activity [36] 78% | residual activity [37] 100% | residual activity [38] 100% | residual activity [39] 100% | inhibition [40] 8.32% | residual activity [41] 100% | inhibition [42] -8.78% | residual activity [43] 100% | residual activity [44] 97%
